Patent US20260034116A1, “CANCER COMBINATION THERAPY INCLUDING A BCL-2 INHIBITOR” (RYVU THERAPEUTICS S.A., priority 2022, published 2026)
Where two headings read alike, the source gives them in different places.

Key:
[1] = system: MOLM-13 cells (FLT3 ITD); experiment: in vitro standard cytotoxicity experiment (MTS), 72 h, MEN with S65487 or AZD4320; assay type: cell-based, human; details: single agent
Experimental: (§1) In an in vitro standard cytotoxicity experiment, two AML cell lines (MOLM-13 [FLT3 ITD] and MV4-11 [FLT3 ITD]) were treated for 72 hours with MEN and S65487 either as a single agent or in combination.
(§2) In an in vitro standard cytotoxicity experiment, two AML cell lines (MOLM-13 [FLT3 ITD] and MV4-11 [FLT3 ITD]) were treated for 72 hours with MEN and AZD4320 either as a single agent or in combination.
(§3) Human acute myeloid leukemia cell lines MV4-11 and MOLM-13 were obtained from DSMZ, Braunschweig, Germany (ACC102 and ACC554). MV4-11 cells were cultured in RPMI 1640 medium (Gibco, Life Technologies, Carlsbad, CA, USA) supplemented with 10% fetal bovine serum (FBS) (Sigma, Saint Louis, CA, USA). MOLM-13 cells were grown in RPMI with 20% FBS. All cells were incubated at 37° C., 5% CO2, 80% relative humidity.
(§4) MEN1703 (alternatively referred to as “Men”, “MEN”, “MEN1703” or “SEL24/MEN1703”), in the HCl-salt form (CAS number 2769008-22-) with the IUPAC name 5,6-dibromo-4-nitro-2-(piperidin-4-yl)-1-(propan-2-yl)-1H-1,3-benzodiazole-4-amine hydrochloride (batch no. A/2201/24/1)), synthesized at Aptuit (VR); AZD4320 from MedChem Express, Monmouth Junction, NJ, USA, batch no. 64354) and S65487 from MedChem Express, Monmouth Junction, NJ, USA were dissolved in DMSO, divided into aliquots and stored at −80° C. until use. Stock solutions were added at appropriate concentration in culture medium before the addition to cells.
(§5) For cytotoxicity studies cells were seeded at appropriate density (50,000 cells/well) prior to addition of MEN and Quiz at day 0. The concentration range was previously identified in single agent cytotoxicity assays for the same time points in order to include in the combination experiment the IC10, IC25, IC50 and IC75 values for each drug and for each AML cell lines (see Tables 4 to 7). After 72 hours, CellTiter 96 Aqueous One Solution Reagent (MTS) (Promega, Madison. WI, USA) was added to assess the cell viability. […] was measured 4 h later using Tecan Infinite M200 (Tecan Trading AG, Switzerland), recording absorbance at 490 nm. Quantitative measurement of synergism/antagonism was evaluated with Combination Index (CI) on the Fraction affected (Fa) using CompuSyn (ComboSyn, Inc. Paramus, NJ, USA) (Chou TC, 2006).

[2] = system: MV4-11 cells (FLT3 ITD); experiment: as above; assay type: cell-based, human; details: single agent
Experimental: as §1, §2, §3, §4, §5

[3] = system: MOLM-13 cells (FLT3 ITD); experiment: in vitro standard cytotoxicity assay (MTS), Ven and/or 5-Aza 48 h followed by Men 24 h; assay type: cell-based, human; details: MOLM13 cells, single agent cytotoxic assay, same time points as combination; for IC50: read-out: IC50 dose level
Experimental: (§6) In an in vitro standard cytotoxicity assay, three AML cell lines (KG1 [FLT3 wt], MV4-11 [FLT3 ITD] and MOLM-13 [FLT3 ITD]) were treated with Ven and/or 5-Aza for 48 hours, followed by Men treatment for additional 24 hours. […] In MOLM13 cells (FLT3 ITD), the CI of the triple combination was similar to the CIs of the Men-Ven and the VenAza combinations (see Table 3).
as §3, with “lines KG-1,” for “lines”, “(ACC14, ACC102” for “(ACC102”, “ACC554). KG-1 and” for “ACC554).”, “humidity. The human acute myeloid leukemia cell line MOLM-16 was obtained from DSMZ, Braunschweig, Germany (cell line number ACC-555. MOLM-16 cells were grown in RPMI with 20% FBS (Sigma, Saint Louis, CA, USA). Cells were incubated at 37° C., 5% CO2, 80% relative humidity.” for “humidity.”
(§7) Men (alternatively referred to as “MEN1703”, in the HCI-salt form (CAS number 2769008-22-) with the IUPAC name 5,6-dibromo-4-nitro-2-(piperidin-4-yl)-1-(propan-2-yl)-1H-1,3-benzodiazole-4-amine hydrochloride (batch no. A/2201/24/1)), synthesized at Aptuit (VR) and Venetoclax (alternatively referred to as “Ven” or “ABT-199”, ChemCruz no. SC-472284A) were dissolved in DMSO, divided into aliquots and stored at-80° C. until use. Stock solutions were added at appropriate concentration in culture medium before the addition to cells. […] A stock solution was added at appropriate concentration in culture medium before the addition to cells.
(§8) For cytotoxicity studies cells were seeded at appropriate density (50.000 cells/well) prior to addition of Ven and 5-Aza at day 0. 5-Aza was added every 24 hours due to degradation (Hollen-bach PW, 2010 and Chang E, 2016). Then, after 48 hours, Men was added to cultured cells for the final 24 h (overall, a period of 72 h was tested). The concentration range was previously identified in single agent cytotoxic assay for the same time points in order to include in the combination experiment the IC10, IC25, IC50 and IC75 values for each drug and for each AML cell lines (see Tables 1 to 3). All possible combinations were assessed: Men+Ven, Ven+5-Aza, Men+5-Aza and men+5-Aza+Ven (mav). After 72 hours, CellTiter 96 Aqueous One Solution Reagent (MTS) (Promega, Madison. WI, USA) was added to assess the cell viability. […] was measured 4h later using Tecan Infinite M200 (Tecan Trading AG, Switzerland), recording absorbance at 490 nm. Quantitative measurement of synergism/antagonism was evaluated with Combination Index (CI) on the Fraction affected (Fa) using CompuSyn (ComboSyn, Inc. Paramus, NJ, USA) (Chou TC, 2006).

[4] = system: MV4-11 cells (FLT3 ITD); experiment: as above; assay type: cell-based, human; details: single agent cytotoxic assay, same time points as combination; for IC50: read-out: IC50 dose level
Experimental: as §6
as §3, with “lines KG-1,” for “lines”, “(ACC14, ACC102” for “(ACC102”, “ACC554). KG-1 and” for “ACC554).”, “humidity. The human acute myeloid leukemia cell line MOLM-16 was obtained from DSMZ, Braunschweig, Germany (cell line number ACC-555. MOLM-16 cells were grown in RPMI with 20% FBS (Sigma, Saint Louis, CA, USA). Cells were incubated at 37° C., 5% CO2, 80% relative humidity.” for “humidity.”
as §7, §8

[5] = system: KG1 cells (FLT3 wt); experiment: as above; assay type: cell-based, human; details: same time points as combination; for IC50: read-out: IC50 dose level
Experimental: as §6
as §3, with “lines KG-1,” for “lines”, “(ACC14, ACC102” for “(ACC102”, “ACC554). KG-1 and” for “ACC554).”, “humidity. The human acute myeloid leukemia cell line MOLM-16 was obtained from DSMZ, Braunschweig, Germany (cell line number ACC-555. MOLM-16 cells were grown in RPMI with 20% FBS (Sigma, Saint Louis, CA, USA). Cells were incubated at 37° C., 5% CO2, 80% relative humidity.” for “humidity.”
as §7, §8

[6] = system: broad panel of AML cell lines in xenograft models; details: in vivo; cited from earlier work
[7] = system: AML; details: single agent in AML treatment; cited from earlier work
[8] = Homo sapiens, KG-1, single agent cytotoxic assay

Row | SMILES | IC10 [1] [nM] | IC25 [1] [nM] | IC50 [1] [nM] | IC75 [1] [nM] | IC10 [2] [nM] | IC25 [2] [nM] | IC50 [2] [nM] | IC75 [2] [nM] | IC50 ([3]; Homo sapiens, MOLM-13) [nM] | IC10 dose level [3] [nM] | IC25 dose level [3] [nM] | IC75 dose level [3] [nM] | IC50 ([4]; Homo sapiens) [nM] | IC10 dose level [4] [nM] | IC25 dose level [4] [nM] | IC75 dose level [4] [nM] | IC50 [5, 8] [nM] | IC10 dose level ([5]; single agent cytotoxic assay) [nM] | IC25 dose level ([5]; single agent cytotoxic assay) [nM] | IC75 dose level ([5]; single agent cytotoxic assay) [nM] | other results
1 | CN(CCO)CC[C@H](CSc1ccccc1)Nc1ccc(S(=O)(=O)NC(=O)c2ccc(N3CCC([C@@H](O)c4ccccc4-c4ccc(Cl)cc4)CC3)cc2)cc1S(=O)(=O)C(F)(F)F [AZD4320] | 3.4 | 11 | 37 | 120 | 0.65 | 1.3 | 2.7 | 5.5 |  |  |  |  |  |  |  |  |  |  |  |  | 
2 | Nc1ncn([C@@H]2O[C@H](CO)[C@@H](O)[C@H]2O)c(=O)n1 [Aza, 5-Azacitidine] |  |  |  |  |  |  |  |  | 960 | 83 | 280 | 3280 | 650 | 140 | 300 | 1410 | 760 | 97 | 270 | 2150 | 
3 | CC(C)n1c(C2CCNCC2)nc2c([N+](=O)[O-])c(Br)c(Br)cc21 [Men, 5,6-dibromo-4-nitro-2-(piperidin-4-yl)-1-(pro-pan-2-yl)-1H-1,3-benzodiazole] | 87.29 | 211.1 | 510 | 1234 | 13.15 | 35 | 93 | 248.6 |  | 40 | 280 | 10880 |  | 6 | 48 | 2770 |  | 151 | 293 | 1103 | IC50 [3]: 1730 nM; IC50 [4]: 366 nM; IC50 ([5]; single agent cytotoxic assay): 569 nM; growth of AML cell lines in xenograft models [6]: inhibit the growth of a broad panel of AML cell lines in xenograft models
4 | Cc1c(N(C(=O)c2cc(-c3cc(Cl)ccc3C(=O)N3Cc4ccccc4C[C@H]3CN3CCOCC3)n(C)c2C)c2ccc(O)cc2)cc(C#N)n1C [S65487] | 14.5 | 57 |  | 880 | 2.5 | 6.6 |  | 48 |  |  |  |  |  |  |  |  |  |  |  |  | IC50 ([1]; Homo sapiens): 224 nM; IC50 ([2]; Homo sapiens): 18 nM
5 | CC1(C)CCC(CN2CCN(c3ccc(C(=O)NS(=O)(=O)c4ccc(NCC5CCOCC5)c([N+](=O)[O-])c4)c(Oc4cnc5[nH]ccc5c4)c3)CC2)=C(c2ccc(Cl)cc2)C1 [Ven, Venetoclax] |  |  |  |  |  |  |  |  | 450 | 12 | 75 | 2770 | 3 | 0.276 | 0.829 | 7 | 1650 | 180 | 550 | 4950 | safety [7]: safe
